The results in this text go back to patent US20220186210A1, “METHOD FOR I[…]” (priority 2019, published 2022).

For test [1], the system named is HeLa cell clones with PSMB5 point mutations. As to the kind of experiment: Cell viability assay of single clones with PSMB5 point mutations. In kind it is cell-based. Particulars: single clones with PSMB5 R78N, V9OL, A108T, C122F, G242D; FIG. 9E. How it is done: Cells were seeded in 96-well plates 24 hour before drug or toxin treatment (5,000 cells for diphtheria toxin (DT) and 3,000 cells for bortezomib), and different concentrations of bortezomib or DT were added. Cells were incubated at 37° C. for 48 hour (DT) or 72 hour (bortezomib) before the addition of 1 mg/ml of MTT (3-[4,5 -dimethylthiazol-2-yl]-2,5 -diphenyltetrazolium bromide). Spectrophotometer readings at 570 nm were collected using BioTek Cytation5 (BioTek Instruments).
(§1) Because missense point mutations were the predominant formats conferring drug resistance for both PSMB5 and PLK1, we decided to employ ssODN-mediated method^(24) to create specific point mutations instead of deletions for validation. We selected nine amino acid residues (R78, T80, V90, M104, A108, D110, C111, C122 and G242) in PSMB5, among which D110 and C111 were included as controls. To choose a proper amino acid for point mutation, the mutant types from screening results or previous reports were preferential choices. For the rest, we made all the substitution to alanine (Table 2). […] It remains to be determined how V90 mediates drug sensitivity and whether V90 alteration changes the structure around Bortezomib binding pocket.

The test system of test [2] is HeLa cells with PSMB5 point mutations. As to the kind of experiment: Pooled ssODN point-mutation validation, Bortezomib resistant colonies (MTT viability). The settings on record: bortezomib 8 ng/ml, 72 hour, FIG. 9D. Format: cell-based. How it is done: For the validation of critical mutations of PSMB5 and PLK1, sgRNAs were designed near the mutation site, and each 119 nt ssODN donor encoded one amino acid substitution for a validated residue. All sgRNAs (sgRNA sequences for the validation of critical mutations) and ssODN donor sequences (ssODN donors encoded one amino acid substitution for a validated residue) are listed in Table 2 as follows.
HeLa cells were transfected with 1 μg of sgRNA and 2 μg of the ssODN donor in six-well plates. Fourteen days after transfection, 1.5×10^5 cells were seeded in six-well plates 24 hour before drug selection. […] The genomes of drug-resistant cells were extracted using the TIANamp Genomic DNA Kit (TIANGEN).
as §1, with “choices.” for “choices. For the rest, we made all the substitution to alanine (Table 2).”

As for `CC(C)C[C@H](NC(=O)[C@H](Cc1ccccc1)NC(=O)c1cnccn1)B(O)O` [Bortezomib], the “cell susceptibility to Bortezomib” value in test [1] is reported as “conferred Bortezomib resistance”. In addition, the Bortezomib resistant colonies result is on record as “failed to produce Bortezomib resistant colonies” in test [2] (PSMB5 control mutations D110A and C111A); “produced variable number of Bortezomib resistant colonies” in test [2] (PSMB5 mutations R78N, T80A, V90A, M104A, A108T, C122F, G242D).
